In patent US20250009756A1 (Acerus Biopharma Inc., priority 2012, published 2025):
Entries after “also recorded” stand apart in the source; their conditions may differ.

Assays:
[1] = Solubility of testosterone in water, solvents, oils and vehicles
pKa of testosterone = conditions: deduced from the molecular structure

**Q.** What does the source list for `C[C@]12CC[C@H]3[C@@H](CCC4=CC(=O)CC[C@@]43C)[C@@H]1CC[C@@H]2O` [Testosterone, 17ß-Hydroxyandrost-4-en-3-one]?
**A.** Solubility in oils ([1]; castor oil): up to 4%; Solubility in castor oil ([1]; castor oil pure, maximum): 3.6%; Solubility in castor oil ([1]; castor oil with 4% Labrafil): ~3.36%; Solubility in oils ([1]; corn oil): 0.5%; Solubility in oils ([1]; cottonseed oil): 0.7%; Solubility in oils ([1]; isopropylmyristate): 0.8%; Solubility in oils ([1]; peanut oil): 0.5%; Solubility (descriptive) ([1]; solvent named in the value): freely soluble in methanol and ethanol; also recorded: soluble in acetone and isopropanol; also recorded: insoluble in n-heptane; Solubility in oils ([1]; soybean oil): 0.6%; Solubility in castor oil ([1]; with fumed silica (Aerosil, CabOsil) and 4.0% Labrafil): up to 4.5%; pKa (pKa of testosterone): no pKa value in the range 1-14
